Laboratory results reported in US7501430B2 (ArQule, Inc., priority 2006, dated 2009).

Target: T1, mutant B-RAF (Homo sapiens, UniProt P15056, V600E)
T1 construct: purchased Upstate (Charlottesville, Va.)
Test: RAF biochemical assay (MEK-1 phosphorylation, anti-phospho MEK1/2 detection)
Conditions: @ 10 uM; read-out: Mutant B-RAF % inhibition
Summary of the method: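 Detection is by ELISA: after a 30 min room-temperature reaction, plate-captured GST-MEK-1 is probed with anti-phospho MEK1/2, then an AP-tagged secondary antibody with fluorescent Attophos read-out.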

T1 sequence (P15056 whole entry V600E): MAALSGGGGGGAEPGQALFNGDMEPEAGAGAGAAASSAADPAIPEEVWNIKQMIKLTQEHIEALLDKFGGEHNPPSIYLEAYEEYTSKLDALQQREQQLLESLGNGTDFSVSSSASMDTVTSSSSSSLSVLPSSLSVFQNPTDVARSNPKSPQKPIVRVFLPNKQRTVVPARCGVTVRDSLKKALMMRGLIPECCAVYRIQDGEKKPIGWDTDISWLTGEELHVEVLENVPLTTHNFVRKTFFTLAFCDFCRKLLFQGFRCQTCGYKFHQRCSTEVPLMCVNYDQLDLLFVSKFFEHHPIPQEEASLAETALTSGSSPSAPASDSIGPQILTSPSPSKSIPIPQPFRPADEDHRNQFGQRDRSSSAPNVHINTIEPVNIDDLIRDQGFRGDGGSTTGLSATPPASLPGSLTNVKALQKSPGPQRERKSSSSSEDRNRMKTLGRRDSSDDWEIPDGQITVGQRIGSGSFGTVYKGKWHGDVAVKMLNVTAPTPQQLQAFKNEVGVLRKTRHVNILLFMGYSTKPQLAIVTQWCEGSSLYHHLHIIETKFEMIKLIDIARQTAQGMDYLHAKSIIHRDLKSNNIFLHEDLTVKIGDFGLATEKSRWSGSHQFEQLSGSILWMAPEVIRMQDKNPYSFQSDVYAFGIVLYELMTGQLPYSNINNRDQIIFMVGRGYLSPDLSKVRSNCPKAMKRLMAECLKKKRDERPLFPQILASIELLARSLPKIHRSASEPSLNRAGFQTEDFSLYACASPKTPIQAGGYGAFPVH

Row | inhibition at 10 µM | Compound
1 | 42% | CC(=O)N1CCC(Nc2nccc(-c3c(-c4ccccc4C)nc4occn34)n2)CC1 [Example 303, N-(1-acetylpiperidin-4-yl)-4-[6-(2-methylphenyl)imidazo[2,1-b][1,3]oxazol-5-yl]pyrimidin-2-amine]
2 | 29% | CC(=O)NCC(=O)N1CCC(Nc2nccc(-c3c(-c4ccc(F)cc4)nc4occn34)n2)CC1 [Example 211, N-{2-[4-({4-[6-(4-fluorophenyl)imidazo[2,1-b][1,3]oxazol-5-yl]pyrimidin-2-yl}amino)piperidin-1-yl]-2-oxoethyl}acetamide]
3 | 37% | O=C(Nc1ccc(F)c(F)c1)N1CCC[C@@H](Nc2nccc(-c3c(-c4ccc(F)cc4)nc4occn34)n2)C1 [Example 73, (3R)-N-(3,4-difluorophenyl)-3-({4-[6-(4-fluorophenyl)imidazo[2,1-b][1,3]oxazol-5-yl]pyrimidin-2-yl}amino)piperidine-1-carboxamide]

Same assay, conditions: read-out: Mutant B-RAF IC50

Row | Compound | IC50
4 | O=C(c1ccc(F)cc1)N1CCC[C@@H](Nc2nccc(-c3c(-c4cccc(O)c4)nc4sccn34)n2)C1 [Example 113, 3-[5-(2-{[(3R)-1-(4-fluorobenzoyl)piperidin-3-yl]amino}pyrimidin-4-yl)imidazo[2,1-b][1,3]thiazol-6-yl}phenol] | 3840 nM
5 | O=S(=O)(c1ccc(F)cc1)N1CCC(Nc2nccc(-c3c(-c4ccc5c(c4)OCCO5)nc4sccn34)n2)CC1 [Example 260, 4-[6-(2,3-dihydro-1,4-benzodioxin-6-yl)imidazo[2,1-b][1,3]thiazol-5-yl]-N-{1-[(4-fluorophenyl)sulfonyl]piperidin-4-yl}pyrimidin-2-amine] | 186 nM
6 | CCOc1ccc(NC(=O)N2CCC[C@@H](Nc3nccc(-c4c(-c5cccc(OC)c5)nc5sccn45)n3)C2)cc1 [Example 329, (3R)-N-(4-ethoxyphenyl)-3-({4-[6-(3-methoxyphenyl)imidazo[2,1-b][1,3]thiazol-5-yl]pyri-midin-2-yl}amino)piperidine-1-carboxamide] | 4000 nM

The next lines start with the values.

Row | IC50 | Compound
7 | 11 nM | O=S(=O)(c1ccc(Cl)cc1)N1CCC[C@@H](Nc2nccc(-c3c(-c4ccc(Cl)c(O)c4)nc4sccn34)n2)C1 [Example 101, 2-chloro-5-{5-[2-({(3R)-1-[(4-chlorophenyl)sulfonyl]piperidin-3-yl}amino)pyrimidin-4-yl]imidazo[2,1-b][1,3]thiazol-6-yl}phenol]
8 | 1320 nM | O=C(C1CCNCC1)N1CCC(Nc2nccc(-c3c(-c4ccc(F)cc4)nc4occn34)n2)CC1 [Example 162, 4-[6-(4-fluorophenyl)imidazo[2,1-b][1,3]oxazol-5-yl]-N-[1-(piperidin-4-ylcarbonyl)piper-idin-4-yl]pyrimidin-2-amine]
9 | 1200 nM | CCCS(=O)(=O)N1CCC[C@@H](Nc2nccc(-c3c(-c4cccc(O)c4)nc4sccn34)n2)C1 [Example 370, 3-[5-(2-{[(3R)-1-(propylsulfonyl)piperidin-3-yl]amino}pyrimidin-4-yl)imidazo[2,1-b][1,3]thiazol-6-yl]phenol]
10 | 392 nM | COc1cccc(-c2nc3sccn3c2-c2ccnc(NC3CCN(S(=O)(=O)c4ccc(F)cc4)CC3)n2)c1 [Example 214, N-{1-[(4-fluorophenyl)sulfonyl]piperidin-4-yl}-4-[6-(3-methoxyphenyl)imidazo[2,1-b][1,3]thiazol-5-yl]pyrimidin-2-amine]
11 | 33 nM | O=C(OC[C@H](O)CO)c1ccc(S(=O)(=O)N2CCC[C@@H](Nc3nccc(-c4c(-c5cccc(O)c5)nc5sccn45)n3)C2)cc1 [Example 341, (2R)-2,3-dihydroxypropyl 4-{[(3R)-3-({4-[6-(3-hydroxyphenyl)imidazo[2,1-b][1,3]thiazol-5-yl]pyrimidin-2-yl}amino)piperidin-1-yl]sulfonyl}benzoate]
12 | 1280 nM | COc1ccccc1-c1nc2sccn2c1-c1ccnc(N[C@@H]2CCCNC2)n1 [Example 102, 4-[6-(2-methoxyphenyl)imidazo[2,1-b][1,3]thiazol-5-yl]-N-[(3R)-piperidin-3-yl]pyrimidin-2-amine]
